Consider 2 compounds from article PMC9520760 (ACS Omega, 2022).

Broadly, the IC50 is the concentration at which inhibition is half-maximal.

One experiment concerns HeLa cells. Description: MTT cell proliferation assay, HeLa. The note with it: for IC50: Homo sapiens, HeLa, 48 h, read-out: IC50 (Mean ± SEM) HeLa; for antiproliferative activity against HeLa: MTT assay. The experiment is classed as cell-based, human.
The next experiment deals with MDA-MB-231 cells. Description: MTT cell proliferation assay, MDA-MB-231. The experiment is classed as cell-based, human. The note with it: for IC50: Homo sapiens, MDA-MB-231, 48 h, read-out: IC50 (Mean ± SEM) MDA-MB-231; for antiproliferative activity against MDA-MB-231: MTT assay. A general note: Tetrazolium dyes change colour on reduction, which living cells bring about.

For another experiment, the system named is MCF-7 cells. The experiment is described as follows: MTT cell proliferation assay, MCF-7. The experiment is classed as cell-based, human. The note with it: for IC50: Homo sapiens, MCF7, 48 h, read-out: IC50 (Mean ± SEM) MCF-7; for antiproliferative activity against MCF-7: MTT assay.
The subject of another experiment is HEK-293 cells. Description: MTT toxicity in normal cell line HEK-293. The experiment is classed as cell-based. As to conditions: Homo sapiens, HEK293, 48 h, read-out: IC50 (Mean ± SEM) HEK-293.
A further experiment deals with Ishikawa cell line. The experiment is described as follows: MTT cell proliferation assay, Ishikawa. The experiment is classed as cell-based, human. As to conditions: for IC50: Homo sapiens, Ishikawa, 48 h, read-out: IC50 (Mean ± SEM) Ishikawa.
The next experiment concerns PC-3 cells. The experiment is described as follows: MTT cell proliferation assay, PC-3. The experiment is classed as cell-based. The note with it: Homo sapiens, PC-3, 48 h, read-out: IC50 (Mean ± SEM) PC-3.
The test system of experiment [1] is various cancer cell lines. Description: MTT assay, panel of cancer cell lines. The experiment is classed as cell-based. As to conditions: Homo sapiens, read-out: IC50 against various cancer cell lines.

For the compound `Cc1nn(-c2ccccc2)c(O)c1C(c1ccccc1)c1c(C)nn(-c2ccccc2)c1O` [3a], the 50% inhibitory concentration (IC50) was 30.7 ± 1.38 µM in the experiment with HeLa cells; 30.8 ± 1.49 µM in the experiment with MDA-MB-231 cells; 35.1 ± 1.38 µM in the experiment with MCF-7 cells; over 40 µM in the experiment with HEK-293 cells; 30.2 ± 2.12 µM in the experiment with Ishikawa cell line; over 40 µM in the experiment with PC-3 cells. Besides, the “antiproliferative activity against HeLa” value in the experiment with HeLa cells is on record as “weak inhibition”. Besides, the “antiproliferative activity against MDA-MB-231” value in the experiment on MDA-MB-231 cells was “weak inhibition”. Besides, the “antiproliferative activity against MCF-7” value in the experiment with MCF-7 cells is “weak inhibition”.

Consider `Cc1nn(-c2ccccc2)c(O)c1C(c1ccc(Cl)cc1)c1c(C)nn(-c2ccccc2)c1O` [3c], for which the IC50 was 32.4 ± 1.62 µM in the experiment with HeLa cells; 22.4 ± 1.34 µM in the experiment with MDA-MB-231 cells; 16.3 ± 0.62 µM in the experiment on MCF-7 cells; over 40 µM with HEK-293 cells; 36.9 ± 1.38 µM in the experiment with Ishikawa cell line; over 40 µM in the experiment with PC-3 cells. Also, in experiment [1], the IC50 lay in the range of 5.45 to 18.3 µM. Besides, in the experiment on HeLa cells, the “antiproliferative activity against HeLa” value was “weak antiproliferative activity”. Moreover, in the experiment with MDA-MB-231 cells, the “antiproliferative activity against MDA-MB-231” value is “mild inhibition”. Further, the “antiproliferative activity against MCF-7” value with MCF-7 cells was “good inhibition”. Besides, the “antiproliferative activity against Ishikawa” value in the experiment with Ishikawa cell line (MTT assay) was “weak antiproliferative activity”.
